In article PMC7948405, “Small-molecule control of neurotransmitter sulfonation” (The Journal of Biological Chemistry, 2020):

Experiments:
Assay in all cases: Initial-rate inhibition of SULT-catalyzed 1-HP sulfonation
Assay type in all cases: biochemical
SULT1A1 = molecular target: T1, SULT1A1 (Homo sapiens, UniProt P50225)
T1 construct: E. coli–optimized SULT coding regions were inserted into a pGEX-6P expression vector; N-His/GST/MBP triple tag (PreScission-cleavable) (N, cleaved yes); made in house; host or cells: E. coli BL21(DE3)
Experimental: (§1) The affinity and specificity of CMP12 and CMP13 were evaluated in initial-rate studies using the four major SULT isoforms expressed in the brain and liver ([27])—SULT1A1, SULT1E1, SULT1A3, and SULT2A1. Initial-rate vs [inhibitor] plots are presented in Fig. 3, A–B. The data are normalized to the rates in the absence of inhibitor. Solid lines passing through the data are the predictions of least-squares fitting to a single-binding-site, partial-inhibition model. The best-fit parameters are found in Table 1. […] Both compounds are partial inhibitors, and their percent inhibition values at saturation (83 and 98%, respectively) agree well with the predicted values.
(§2) Figure 3 Affinity, specificity, and binding sites of CMP12 and CMP13. A and B, inhibition studies. Initial rates of SULT-catalyzed 1-HP sulfonation are plotted as a function of inhibitor concentration. Rates are normalized to the rate observed in the absence of the inhibitor. Inhibition of the major SULT isoforms found in the brain and liver were tested. SULT activity was monitored via the sulfonation-dependent change in 1-HP fluorescence (λex = 325 nm, λem = 375 nm ([15], [28])). Reaction conditions were as follows: SULT (20 nM, active sites), PAPS (0.50 mM, 17 × Km), 1-HP (5.0 μM, 61 × Km), KPO4 (50 mM), pH 7.5, 25(±2) °C. Less than 5% of the concentration-limiting substrate was converted to the product at reaction endpoints. Each data point is the average of three independent determinations. The lines passing through the data are least-squares fits to a noncompetitive partial-inhibition model (see Experiment and Initial rate). C, CMP8 competes with CMP12 and CMP13. Initial rates at saturating CMP12 or CMP13 are plotted as a function of CMP8 concentration. Rates are normalized to the rate observed in the absence of the inhibitor. […] Lines passing through the data are the predictions of a noncompetitive partial-inhibition model in which inhibitors compete for the same site (see Experiment and Binding competition). SULT, sulfotransferase; PAP, 3′-phosphoadenosine-5′-phosphate; SULT1A3, sulfotransferase 1A3; PAPS, 3’-phosphoadenosine 5’-phosphosulfate; 1-HP, 1-hydroxypyrene.
(§3) Initial-rate inhibition parameters were obtained from classical initial-rate studies ([16], [28], [43]). Reactions were initiated by addition of PAPS (0.50 mM, 17 × Km) to a solution containing SULT1A3 (20 nM, active sites), inhibitor (0.2–20 × Ki), 1-HP (5.0 μM, 60 × Km), and KPO4 (50 mM), pH 7.5, 25(±2) °C. Reaction progress was monitored via the fluorescence change associated with 1-HP sulfonation (λex = 325 nm, λem = […] ([15], [28])). Less than 5% of the 1-HP was converted to the product at reaction endpoints. Ki and kcat inh (i.e., turnover at saturating inhibitor and substrate) were obtained by fitting to the following quadratic equation for noncompetitive, partial inhibition at [S] >> Km ([44]):(7) v/Vmax=([Etot]+[ESI](α-1))/[Etot] where(8) α=kcat inh/kcat and(9) [ESI]=[([E]tot+[I]tot+Ki)−[([E]tot+[I]tot+Ki)^2−4·[I]tot·[E]tot]^1/2]/2

SULT2A1 = molecular target: T2, SULT2A1 (Homo sapiens, UniProt Q06520); conditions: concentrations as high as 10 μM
T2 construct: E. coli–optimized SULT coding regions were inserted into a pGEX-6P expression vector; N-His/GST/MBP triple tag (PreScission-cleavable) (N, cleaved yes); made in house; host or cells: E. coli BL21(DE3)
T2 sequence (Q06520 1-285): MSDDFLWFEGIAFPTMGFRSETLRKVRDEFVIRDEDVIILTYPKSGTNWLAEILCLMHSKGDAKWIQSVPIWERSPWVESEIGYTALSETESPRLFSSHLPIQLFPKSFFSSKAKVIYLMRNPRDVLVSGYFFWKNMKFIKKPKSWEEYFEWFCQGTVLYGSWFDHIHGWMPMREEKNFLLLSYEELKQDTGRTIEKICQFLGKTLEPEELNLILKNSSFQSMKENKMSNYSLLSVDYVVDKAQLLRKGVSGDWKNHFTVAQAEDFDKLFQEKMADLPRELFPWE
Experimental: as §1, §2, §3

SULT1E1 = molecular target: T3, SULT1E1 (Homo sapiens, UniProt P49888); conditions: concentrations as high as 10 μM
T3 construct: E. coli–optimized SULT coding regions were inserted into a pGEX-6P expression vector; N-His/GST/MBP triple tag (PreScission-cleavable) (N, cleaved yes); made in house; host or cells: E. coli BL21(DE3)
T3 sequence (P49888 1-294): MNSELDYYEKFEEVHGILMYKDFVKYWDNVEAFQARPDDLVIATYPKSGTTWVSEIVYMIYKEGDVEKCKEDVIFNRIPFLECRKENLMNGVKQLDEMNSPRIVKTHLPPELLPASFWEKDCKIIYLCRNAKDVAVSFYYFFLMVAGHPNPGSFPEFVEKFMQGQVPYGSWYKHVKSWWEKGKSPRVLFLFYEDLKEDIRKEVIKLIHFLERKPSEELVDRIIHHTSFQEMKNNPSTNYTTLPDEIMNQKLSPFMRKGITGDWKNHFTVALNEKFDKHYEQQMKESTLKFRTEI
Experimental: as §1, §2, §3

T1 sequence (P50225 whole entry): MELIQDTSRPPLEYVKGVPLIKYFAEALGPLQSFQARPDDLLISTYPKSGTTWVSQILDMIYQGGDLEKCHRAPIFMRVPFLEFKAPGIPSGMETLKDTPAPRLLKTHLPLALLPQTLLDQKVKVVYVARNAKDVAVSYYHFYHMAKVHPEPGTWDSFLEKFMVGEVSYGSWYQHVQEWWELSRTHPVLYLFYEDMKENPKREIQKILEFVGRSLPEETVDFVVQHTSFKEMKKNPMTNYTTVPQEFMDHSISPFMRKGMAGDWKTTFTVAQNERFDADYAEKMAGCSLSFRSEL

CC(C)Cc1ccc2cc(CCC(N)=O)ccc2n1 [CMP12]
inhibition of SULT1A1 (SULT1A1; concentrations as high as 10 μM): no detectable inhibition | inhibition of SULT2A1 (SULT2A1): no detectable inhibition | inhibition of SULT1E1 (SULT1E1): no detectable inhibition

CC(C)Cc1ccc2cc(/C=C/C(N)=O)cnc2n1 [CMP13]
Ki (SULT1A1; SULT1A1, initial rate): 3.1 ± 0.2 µM | inhibition of SULT2A1 (SULT2A1): behaved similarly | inhibition of SULT1E1 (SULT1E1): behaved similarly
